Test results taken from PMC7449455 (PLoS Neglected Tropical Diseases, 2020).
“Also recorded” adds a separate entry of the source. Structures can show the parent of a compound that is named as a salt.

Assays:
[1] = Cytotoxicity in HepG2 cells (CellTiter-Glo); type: cell-based; conditions: human, HepG2 cell line, ATP quantification
Experimental: (§1) To determine compound toxicity we used the HepG2 cell line (human hepatocellular carcinoma, ATCC HB-8065) as a widely used cell-based assay. The cells were maintained in MEM (Gibco) supplemented with 5% heat-inactivated FBS, 1 mM Sodium pyruvate (Gibco) and 1X MEM amino acids solution (Sigma). Briefly, cells were added to white-bottomed 96-well plates containing 100 μL of serial 2-fold dilutions of the H1RAs. After 24 hours of culture at 37 °C, the percentage of viable cells was determined by ATP quantification using the CellTiter-Glo luminescent Cell Viability Assay (Promega) according to the manufacturer’s instructions. […] At least three different assays were carried out to determine the IVTI of each compound, which was calculated as the ratio between the CC50 obtained in the HepG2 cell line and the EC50 determined in the L. major EVC [21]. To evaluate the cytotoxicity of AZ and FX in peritoneal macrophages, adherent cells obtained from peritoneal lavage of naïve mice (10,000/well) were exposed during 24 hours at 37°C to serial drug concentrations (0.09 μM—200 μM). Cell viability was determined by CellTiter-Glo (Promega).

[2] = test system: L. major; assay: L. major ex vivo lymph node explant culture (EVC), luminometry; type: cell-based, Leishmania major; conditions: 48 h at 34°C, luminescence
Experimental: An ex vivo explant culture (EVC) used in multiple experiments was obtained as previously described. Briefly, the mice were inoculated on the snout and rump with 10^7 metacyclic promastigotes of L. major-LUC. At 3 weeks post-infection (p.i.), the draining lymph nodes (retropharyngeal and sub-iliac) of infected animals were aseptically removed, infiltrated with 2 mg/mL of collagenase D (Roche) and incubated for 30 minutes at 37°C [21]. The cell suspension was washed in DMEM, and re-suspended in 2X supplemented culture medium, composed of DMEM (Cellgro), 10% heat-inactivated FBS (Atlanta Biologicals, Lawrenceville, GA), 2 mM Sodium pyruvate (Sigma, St. Louis MO), 2X MEM amino acids solution (Sigma), and 20 mM HEPES buffer (Cellgro). The EVC 100,000-cell suspension in 100 μL was dispensed in white luminometry plates (Costar) and exposed to 2-fold serial dilutions of 2X H1RAs in 100 μL DMEM (plain culture medium).
(§2) Cells exposed to compounds were lysed and the luciferase signal read in a plate luminometer (FLUOstar Omega, BMG Labtech) after adding 100 μL of luciferin substrate (Promega). The percentage of parasite inhibition compared with the vehicle control was calculated as = 100 - [(parasite counts in treated cells/parasite counts in vehicle wells) x 100]. The EC50 was determined by regression analysis using GraphPad (Prism 5.0) and the mean and standard error from three different experiments was utilized to estimate the final EC50. The anti-leishmanial efficacy of compounds was evaluated using L. major-LUC promastigotes in the logarithmic phase of growth (4 days). The parasites were grown in M199 supplemented with 20% FBS, 0.1% hemin and 10 mM adenine. Then, L. major was harvested and exposed to serial 2-fold dilutions of the compounds in a 100μL volume (10^6 promastigotes/mL) in 96-well white plates. After 48 h at 28°C incubation, the parasites were pelleted by centrifugation, lysed and 100 μL of luciferin substrate was added (Promega). The luciferase signal was read as described above.

[3] = test system: L. major-LUC promastigotes; assay: L. major-LUC promastigote culture, luminometry; type: cell-based, Leishmania major; conditions: 48 h, compared with concentrations used against intracellular amastigotes
Experimental: as §2

[4] = test system: L. major; assay: In vivo efficacy in BALB/c mice infected with L. major-LUC
Experimental: Mice were infected in the rump with 10^7 opsonized promastigotes of L. major-LUC as we previously described. The animals were treated starting at day 3 p.i. for up to 10 days. AZ (0.0625 and 0.125 mg/mouse) and FX (40 and 80 mg/kg) were dissolved in sterile PBS and administered by intralesional injection (ID) or gavage (PO), respectively. Mice receiving AZ were treated 3 times at 48-hour intervals. Control mice received sterile PBS according to the route used by each H1RAs (ID or PO). Miltefosine was administered orally at doses of 25 mg/kg or 50 mg/kg for 10 days and used as positive control of parasite suppression. The clinical efficacy was assessed by comparing lesion size (LS) after 10 days of treatment compared with the negative vehicle control as described by Grogl et al.. Therefore, percent suppression was defined as [(LS negative control–LS compound) / LS negative control] x 100. A parasite suppression ≥50% compared with the untreated control was considered significant anti-leishmanial activity. Lesion size (area in mm^2 = length x width) was measured using a digital caliper (Mitutoyo; Kawasaki, Japan).
The parasite burden of individual mice was assessed in vivo at the beginning and end of the experiment using the IVIS Spectrum equipment (Perkin Elmer) by injecting the animals with 1.5 mg luciferin (GoldBio) intradermally at the infection site. The ultrasensitive IVIS camera quantitatively measures the light emitted by the luciferase-transfected L. major upon exposure to the substrate (firefly luciferin). The mice were imaged under deep anesthesia using an isoflurane vaporizer. They were placed in a supine position in the pre-warmed IVIS box and the images were taken exactly 5 minutes after luciferin injection. The analysis was performed after defining a standard region of interest (ROI) over the infection site using the Living Image software (Xenogen Corporation, Almeda, CA). This protocol allowed us to determine the parasite burden in the same animal over multiple time points. Results were expressed in units of photons per second. […] This approach is in accordance with the criteria proposed for Leishmania in deciding when a compound qualifies to progress into ‘lead’ compound identification.

[5] = Cytotoxicity in naive mouse peritoneal macrophages (CellTiter-Glo); type: cell-based; conditions: read-out: CC50 (toxicity in peritoneal macrophages)
Experimental: as §1

[6] = design: method as in PMID 11316966; conditions: daily oral 4 mg for 21 days, chronic idiopathic urticaria; cited from earlier work
[7] = test system: h1r, il-1ẞ, IL-6 expression; assay: Gene expression by qPCR in L. major ex vivo lymph node explant culture; type: cell-based, mouse; conditions: EVC; for expression of H1R / expression of IL-1ẞ: quantitative PCR
Experimental: After 48 h of ex vivo treatments, the samples were lysed in 10 μL of IGEPAL lysis buffer (10 mM Tris-HCL ph7.4 + 0.3% IGEPAL, 0.1% BSA + 150 mM NaCl and 1,500 cells/μL) and reverse transcribed (High-Capacity cDNA Reverse Transcription Kit, ThermoFisher Sci.). Mouse h1r, il-1ẞ, and Leishmania 18s genes were amplified by qPCR using the following primers: mouse h1r: Fw- […]; Rev-[…] (PrimerBank database; ID and 31542963a1); Mouse il-1β: Fw- […]; Rev- […]); Leishmania 18s: Fw-[…]; Rev- […] [28]. Amplicons were detected with SYBR. The fold change of gene expression was estimated by the delta CT method using the host cell 18s as reference gene. The percentage of parasite load was calculated with reference to DMSO controls.

[8] = test system: L. major; assay: L. major-infected peritoneal macrophages with or without CD3+ T cells, luminometry; type: cell-based, Leishmania major
Experimental: The anti-leishmanial efficacy of AZ was also evaluated in adherent peritoneal macrophages from naïve mice infected in vitro with L. major promastigotes (1 cell: 10 parasites) during 4 h at 34°C. After washing extracellular parasites, infected cells were transferred to white plates (10,000/well) and exposed to AZ. The effect of T cells on parasite burden of AZ-treated cells was evaluated using CD3T+ cells. These cells were isolated by positive selection with magnetic beads (MojoSort, Biolegend) from the lymph nodes of either uninfected or L. major-infected mice (1 infected macrophage: 2 lymphocytes ratio). Parasite burden was determined after 48 h of culture by luminometry.

[9] = test system: L. infantum; design: method as in PMID 31002807; conditions: infected spleen macrophages from hamsters; cited from earlier work
[10] = test system: Leishmania mexicana; conditions: alone or in combination with pentostam; cited from earlier work
[11] = test system: L. infantum; design: method as in PMID 31002807, PMID 24905294; conditions: cited from earlier work
[12] = AZ 0.06 mg/mouse intralesional, statistically non-significant
[13] = AZ 0.125 mg/mouse intralesional x3, luminometry
[14] = FX lower-dose regimens (40 mg/kg twice a day or 80 mg/kg once a day)

## C[C@@H]1[C@H](O)[C@@H](C)/C=C/C=C/C=C/C=C/C=C/C=C/C=C/[C@H](O[C@@H]2O[C@H](C)[C@@H](O)[C@H](N)[C@@H]2O)C[C@@H]2O[C@](O)(C[C@@H](O)C[C@@H](O)[C@H](O)CC[C@@H](O)C[C@@H](O)CC(=O)O[C@H]1C)C[C@H](O)[C@H]2C(=O)O [Amphotericin B]
[1]
  CC50 at 24 h: 16.3 ± 1.49 µM
[2]; Leishmania major, 48 h
  EC50: 0.5 ± 0.01 µM

## CN1CCCC(n2nc(Cc3ccc(Cl)cc3)c3ccccc3c2=O)CC1 (stereo not shown) [Azelastine]
[3]
  suppressive effect against cultured promastigotes: suppressive effect against cultured promastigotes only when used at concentrations 100-fold higher
[4]; [12]
  reduction of parasite burden in lymph node: 15%
  reduction of parasite burden in the lesion: 57%
[4]; [13]
  reduction of parasite load in lymph node: 36%
  reduction of parasite load in the lesion: 87%
[4]; AZ 0.125 mg/mouse, three intralesional injections every other day
  lesion diminution compared with untreated controls: 52%
[4]; AZ intralesional, 0.125 mg/mouse, listed as AZ
  weight loss or observable side effect: no observable side effects; also recorded: None of the mice treated with this compound presented weight loss or any observable side effect
[1]
  CC50 at 24 h: 45.1 ± 11.2 µM
[5]
  CC50 at 24 h: 0.95 µM
[6]
  side effects: lack of side effects
[7]; qPCR, highly variable
  decrease of the expression of IL-6: 20.1± 21%
[7]
  expression of H1R: significantly inhibited its expression
  expression of IL-1ẞ: reduced the pro-inflammatory cytokine IL1-ẞ
[8]; 0.5 μM, infected naive mouse peritoneal macrophages, 48 h
  intracellular amastigote suppression: positive effect on intracellular amastigote suppression
[8]; in presence of AZ, versus macrophages alone or with naive lymphocytes
  parasite killing with primed T cells from infected mice: significantly enhanced parasite killing
[2]; Leishmania major, 48 h
  EC50: 0.05 ± 0.02 µM

## CN(C)CCN(Cc1ccc(Cl)cc1)c1ccccn1 [Chloropyramine]
[1]
  CC50 at 24 h: 140 ± 49.6 µM
[2]
  EC50: 3.87 ± 0.2 µM
[2]; listed as chloropyramine
  EC50: < 10 µM

## CN1CCC(=C2c3ccccc3C=Cc3ccccc32)CC1 [Cyproheptadine]
[1]
  CC50 at 24 h: 172 ± 41 µM

## CN(C)CC[C@@H](c1ccc(Cl)cc1)c1ccccn1 [Dexchlorpheniramine maleate]
[1]
  CC50 at 24 h: 177 ± 16.3 µM
[2]; Leishmania major, 48 h
  EC50: 35.2 ± 6.9 µM

## CC(C)(C(=O)O)c1ccc(C(O)CCCN2CCC(C(O)(c3ccccc3)c3ccccc3)CC2)cc1 (stereo not shown) [Fexofenadine]
[4]; FX 40 mg/kg PO twice a day
  reduction in lesion size: 50%
[4]; FX 80 mg/kg PO once a day
  reduction in lesion size: 37%
[4]; FX 80 mg/kg PO twice a day
  loss of body weight: ≤ 5%
  reduction in lesion size compared with untreated control: 69%
  reduction in parasite burden at the lesion site: 82%
  reduction in parasite burden in draining lymph nodes: 81%
[4]; FX PO, 80 mg/kg twice a day, listed as FX, 80 mg/kg
  clinical side effects: no observable side effects; also recorded: no other clinical side effect was found
[4]; [14]
  reduction of parasite load in lesions: up to 59%
  reduction of parasite load in lymph nodes: ≤ 72%
[9]
  IC50: > 100 µM
[2]; Leishmania major, 48 h
  EC50: 1.5 ± 0.18 µM

## CN1CCC(=C2c3ccccc3CC(=O)c3sccc32)CC1 [Ketotifen]
[1]
  CC50 at 24 h: 282 ± 22.9 µM
[2]; Leishmania major, 48 h
  EC50: 11.86 ± 0.1 µM

## c1ccc2c(c1)Sc1ccccc1N2CC1CN2CCC1CC2 (stereo not shown) [Mequitazine]
[1]
  CC50 at 24 h: 50.3 ± 8.75 µM
[2]
  EC50: 4.53 ± 3.9 µM
[2]; listed as mequitazine
  EC50: < 10 µM

## CN1CCN2c3ccccc3Cc3ccccc3C2C1 (stereo not shown) [Mianserin]
[1]
  CC50 at 24 h: 157 ± 19 µM

## CCCCCCCCCCCCCCCCOP(=O)([O-])OCC[N+](C)(C)C [Miltefosine]
[1]
  CC50 at 24 h: 74.9 ± 5.01 µM
[2]; Leishmania major, 48 h
  EC50: 1.64 ± 0.26 µM

## Cc1ccc(/C(=C\CN2CCCC2)c2ccccn2)cc1 [Triprolidine]
[1]
  CC50 at 24 h: 390 ± 27.9 µM
[2]; Leishmania major, 48 h
  EC50: 11.2 ± 4.2 µM

## CN/C(=N/CCSCc1nc[nH]c1C)NC#N [cimetidine]
[10]
  treatment efficacy: effective

## C(=C\c1ccccc1)/CN1CCN(C(c2ccccc2)c2ccccc2)CC1 [cinnarizine]
[11]
  parasite load in hamster spleen: failed to significantly decrease the parasite load

## NCCc1c[nH]cn1 [histamine]
[7]
  expression of H1R: markedly increased the expression of H1R
  expression of IL-1ẞ: increased the expression of IL-1ẞ
